Results taken from PubChem BioAssay AID248 (DTP/NCI, 2004).
Where “and” joins values, the source holds several entries; their conditions need not be identical. Identical values can stand only once. Inconclusive results and toxic doses are left out.

Tested on: L1210 leukemia ip in BDF1 mice, survival T/C
Test: NCI In Vivo Anticancer Drug Screen. Data for tumor model L1210 Leukemia (intraperitoneal) in B6D2F1 (BDF1) mice
Settings: endpoint: mean survival time, higher = longer survival
Summary of the method: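 In this screen, tumor-bearing mice given compound are compared to those given vehicle, and their survival values are reported as a treated-to-control quotient.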

[1] = dose: 100.0 mg/kg/injection, schedule: Q04DX003 (ip), vehicle: Klucel (hydroxypropylcellulose) (HPC)
[2] = dose: 200.0 mg/kg/injection, schedule: Q04DX003 (ip), vehicle: Klucel (hydroxypropylcellulose) (HPC)
[3] = dose: 50.0 mg/kg/injection, schedule: Q04DX003 (ip), vehicle: saline
[4] = dose: 12.5 mg/kg/injection, schedule: Q01DX009 (ip), vehicle: saline with Tween-80
[5] = dose: 25.0 mg/kg/injection, schedule: Q01DX009 (ip), vehicle: saline with Tween-80
[6] = dose: 50.0 mg/kg/injection, schedule: Q01DX009 (ip), vehicle: saline with Tween-80
[7] = dose: 100.0 mg/kg/injection, schedule: Q01DX009 (ip), vehicle: saline with Tween-80
[8] = dose: 100.0 mg/kg/injection, schedule: Q01DX009 (ip), vehicle: saline
[9] = dose: 400.0 mg/kg/injection, schedule: Q01DX009 (ip), vehicle: saline with Tween-80
[10] = dose: 100.0 mg/kg/injection, schedule: Q04DX002 (ip), vehicle: Klucel (hydroxypropylcellulose) (HPC)
[11] = dose: 200.0 mg/kg/injection, schedule: Q04DX002 (ip), vehicle: Klucel (hydroxypropylcellulose) (HPC)
[12] = dose: 400.0 mg/kg/injection, schedule: Q04DX003 (ip), vehicle: Klucel (hydroxypropylcellulose) (HPC)
[13] = dose: 400.0 mg/kg/injection, schedule: Q04DX002 (ip), vehicle: Klucel (hydroxypropylcellulose) (HPC)

Structure (SMILES): CC(N)c1ccc(OCCOc2ccc(C(C)(C)CC(C)(C)C)cc2)cc1 (stereo not given)
- T/C (dose: 6.25 mg/kg/injection, schedule: Q01DX009 (ip), vehicle: Klucel (hydroxypropylcellulose) (HPC)): 93 % of control
- T/C (dose: 12.5 mg/kg/injection, schedule: Q01DX009 (ip), vehicle: Klucel (hydroxypropylcellulose) (HPC)): 94 % of control
- T/C (dose: 25.0 mg/kg/injection, schedule: Q01DX009 (ip), vehicle: Klucel (hydroxypropylcellulose) (HPC)): 93 % of control
- T/C [1]: 96 % of control
- T/C [2]: 95 % of control

Structure (SMILES): NC(=O)c1c[n+]([O-])ccn1
- T/C [3]: 108 % of control
- T/C (dose: 100.0 mg/kg/injection, schedule: Q01DX001 (ip), vehicle: saline): 96 % of control
- T/C (dose: 100.0 mg/kg/injection, schedule: Q04DX003 (ip), vehicle: saline): 101 % of control
- T/C (dose: 200.0 mg/kg/injection, schedule: Q01DX001 (ip), vehicle: saline): 98 % of control
- T/C (dose: 200.0 mg/kg/injection, schedule: Q04DX003 (ip), vehicle: saline): 113 % of control

Structure (SMILES): CCCCCCCCCCC(N)P(=O)(O)O (stereo not given)
- T/C [4]: 103 % of control
- T/C [5]: 101 % of control
- T/C [6]: 105 % of control
- T/C (dose: 300.0 mg/kg/injection, schedule: Q01DX001 (ip), vehicle: saline): 98 % of control

Structure (SMILES): COC(=O)C1=NNC(c2ccc(OC)cc2)C1 (stereo not given)
- T/C (dose: 100.0 mg/kg/injection, schedule: Q01DX001 (ip), vehicle: steriod suspending solution): 115 % of control
- T/C (dose: 200.0 mg/kg/injection, schedule: Q01DX001 (ip), vehicle: steriod suspending solution): 97 % of control
- T/C (dose: 400.0 mg/kg/injection, schedule: Q01DX001 (ip), vehicle: steriod suspending solution): 103 % of control

Structure (SMILES): CN(N=O)C(=O)NCC1OC(OC2(CO)OC(CNC(=O)N(C)N=O)C(O)C2O)C(O)C(O)C1O (stereo not given)
- T/C [6]: 107 % of control
- T/C (dose: 50.0 mg/kg/injection, schedule: Q01DX009 (ip), vehicle: saline): 91 % of control
- T/C [7]: 121 % of control
- T/C [8]: 109 % of control
- T/C [9]: 154 % of control

Structure (SMILES): CCOC(=O)C1C(=O)Nc2c(ccc3ccccc23)N1C(C)=O (stereo not given)
- T/C (dose: 50.0 mg/kg/injection, schedule: Q04DX002 (ip), vehicle: Klucel (hydroxypropylcellulose) (HPC)): 96 % of control
- T/C [10]: 93 % of control
- T/C [11]: 93 % of control

Structure (SMILES): Cc1ccccc1OS(=O)(=O)c1ccccc1[N+](=O)[O-]
- T/C [7]: 103 % of control
- T/C [1]: 95 % of control
- T/C (dose: 200.0 mg/kg/injection, schedule: Q01DX009 (ip), vehicle: saline with Tween-80): 90 % of control
- T/C [2]: 104 % of control
- T/C [9]: 108 % of control
- T/C [12]: 90 % of control

Structure (SMILES): Cc1ccc(C(=O)Cc2ccccc2)cc1
- T/C [10]: 94 % of control
- T/C [11]: 98 % of control
- T/C [13]: 110 % of control

Structure (SMILES): CC1=C(c2ccccc2)C(c2ccccc2)=C(C)C1=NNc1ccc([N+](=O)[O-])cc1[N+](=O)[O-]
- T/C (dose: 100.0 mg/kg/injection, schedule: Q01DX001 (ip), vehicle: saline with Tween-80): 86 % of control
- T/C (dose: 200.0 mg/kg/injection, schedule: Q01DX001 (ip), vehicle: saline with Tween-80): 86 % of control
- T/C (dose: 400.0 mg/kg/injection, schedule: Q01DX001 (ip), vehicle: saline with Tween-80): 86 % of control

Structure (SMILES): CC(C)(C)N1C=C(c2ccccc2)N=CC1(c1ccccc1)C(C)(C)C (stereo not given)
- T/C (dose: 50.0 mg/kg/injection, schedule: Q04DX002 (ip), vehicle: saline with Tween-80): 99 % of control
- T/C [10]: 92 % of control
- T/C (dose: 100.0 mg/kg/injection, schedule: Q04DX002 (ip), vehicle: saline with Tween-80): 99 % of control
- T/C [11]: 100 % of control
- T/C (dose: 200.0 mg/kg/injection, schedule: Q04DX002 (ip), vehicle: saline with Tween-80): 99 % of control
- T/C [13]: 103 % of control

Structure (SMILES): CCCCCCCCCCCCCCCC(=O)N(CCCN)CCCN
- T/C [4]: 109 % of control
- T/C (dose: 12.5 mg/kg/injection, schedule: Q04DX003 (ip), vehicle: saline): 98 % of control
- T/C (dose: 25.0 mg/kg/injection, schedule: Q04DX003 (ip), vehicle: saline): 103 % of control
- T/C [3]: 101 % of control

Structure (SMILES): CC1CC(=O)c2cccc(Cl)c2N1C (stereo not given)
- T/C [1]: 100 % of control
- T/C [2]: 100 % of control
- T/C [12]: 98 % of control

Structure (SMILES): O=C(O)CN=CC(O)C(O)C(O)C(O)CO (stereo not given)
- T/C (dose: 12.5 mg/kg/injection, schedule: Q04DX002 (ip), vehicle: saline): 105 % of control
- T/C (dose: 25.0 mg/kg/injection, schedule: Q04DX002 (ip), vehicle: saline): 88 % of control
- T/C (dose: 50.0 mg/kg/injection, schedule: Q04DX002 (ip), vehicle: saline): 105 % of control
- T/C (dose: 100.0 mg/kg/injection, schedule: Q04DX002 (ip), vehicle: saline): 123 % of control
- T/C (dose: 200.0 mg/kg/injection, schedule: Q04DX002 (ip), vehicle: saline): 103 % of control
- T/C (dose: 400.0 mg/kg/injection, schedule: Q04DX002 (ip), vehicle: saline): 106 % of control

Structure (SMILES): CC(=O)OCC1OC(S[As](C)SC2OC(COC(C)=O)C(OC(C)=O)C(OC(C)=O)C2OC(C)=O)C(OC(C)=O)C(OC(C)=O)C1OC(C)=O (stereo not given)
- T/C (dose: 6.25 mg/kg/injection, schedule: Q01DX009 (ip), vehicle: saline with Tween-80): 101 % of control
- T/C [4]: 116 % of control
- T/C [5]: 116 % of control

Structure (SMILES): Cc1c(O)ccc2c1CCCC2
- T/C (dose: 25.0 mg/kg/injection, schedule: Q04DX003 (ip), vehicle: Klucel (hydroxypropylcellulose) (HPC)): 103 % of control
- T/C (dose: 50.0 mg/kg/injection, schedule: Q04DX003 (ip), vehicle: Klucel (hydroxypropylcellulose) (HPC)): 97 % of control
- T/C (dose: 100.0 mg/kg/injection, schedule: Q01DX009 (ip), vehicle: saline sonified): 92 % of control
- T/C [1]: 92 % of control and 117 % of control
- T/C (dose: 200.0 mg/kg/injection, schedule: Q01DX009 (ip), vehicle: saline sonified): 88 % of control
- T/C [2]: 107 % of control
- T/C (dose: 400.0 mg/kg/injection, schedule: Q01DX009 (ip), vehicle: saline sonified): 94 % of control
- T/C [12]: 103 % of control

Structure (SMILES): C=CS(=O)(=O)c1ccccc1Cl
- T/C [1]: 104 % of control
- T/C [2]: 98 % of control

Structure (SMILES): Oc1ccc(CCNCc2ccc3c(c2)OCO3)cc1
- T/C (dose: 100.0 mg/kg/injection, schedule: Q01DX001 (ip), vehicle: Klucel (hydroxypropylcellulose) (HPC)): 88 % of control
- T/C (dose: 200.0 mg/kg/injection, schedule: Q01DX001 (ip), vehicle: Klucel (hydroxypropylcellulose) (HPC)): 88 % of control
- T/C (dose: 400.0 mg/kg/injection, schedule: Q01DX001 (ip), vehicle: Klucel (hydroxypropylcellulose) (HPC)): 88 % of control

Structure (SMILES): C(=NCc1ccccc1)C1(c2ccccc2)OC1c1ccccc1 (stereo not given)
- T/C [1]: 91 % of control
- T/C [2]: 87 % of control
- T/C [12]: 88 % of control

Structure (SMILES): N#Cc1ccccc1CCl
- T/C (dose: 50.0 mg/kg/injection, schedule: Q01DX001 (ip), vehicle: carboxymethylcellulose (CMC)): 103 % of control
- T/C (dose: 100.0 mg/kg/injection, schedule: Q01DX001 (ip), vehicle: carboxymethylcellulose (CMC)): 97 % of control
- T/C (dose: 200.0 mg/kg/injection, schedule: Q01DX001 (ip), vehicle: carboxymethylcellulose (CMC)): 103 % of control
- T/C (dose: 400.0 mg/kg/injection, schedule: Q01DX001 (ip), vehicle: carboxymethylcellulose (CMC)): 107 % of control

Structure (SMILES): CCOC(=O)C(C)C1(O)CCCCC1 (stereo not given)
- T/C [8]: 98 % of control
- T/C (dose: 200.0 mg/kg/injection, schedule: Q01DX009 (ip), vehicle: saline): 95 % of control
- T/C (dose: 400.0 mg/kg/injection, schedule: Q01DX009 (ip), vehicle: saline): 98 % of control

Structure (SMILES): CC[C@H](CC[C@@H](C)[C@H]1CC[C@H]2[C@@H]3CC=C4C[C@@H](OC(=O)CN5CCNCC5)CC[C@]4(C)[C@H]3CC[C@]12C)C(C)C
- T/C (dose: 100.0 mg/kg/injection, schedule: Q01DX001 (ip), vehicle: water): 98 % of control
- T/C (dose: 100.0 mg/kg/injection, schedule: Q01DX009 (ip), vehicle: water): 105 % of control
- T/C (dose: 100.0 mg/kg/injection, schedule: Q04DX003 (ip), vehicle: water): 100 % of control
- T/C (dose: 200.0 mg/kg/injection, schedule: Q01DX001 (ip), vehicle: water): 98 % of control
- T/C (dose: 200.0 mg/kg/injection, schedule: Q01DX009 (ip), vehicle: water): 89 % of control
- T/C (dose: 200.0 mg/kg/injection, schedule: Q04DX003 (ip), vehicle: water): 100 % of control
- T/C (dose: 400.0 mg/kg/injection, schedule: Q01DX001 (ip), vehicle: water): 91 % of control
- T/C (dose: 400.0 mg/kg/injection, schedule: Q04DX003 (ip), vehicle: water): 98 % of control
